The term inhibition denotes the change of the read-out against control, counted positive when it falls.

Molecules are shown by their SMILES.

Data set [1] deals with T1, human serotonin 5-HT transporter (SERT) (Homo sapiens, UniProt P31645).
T1 construct: host or cells: CHO cells, cell membrane homogenates
Description: Serotonin transporter binding assay ([3H]imipramine, CEREP). To be noted: ligand [3H]imipramine, transfected CHO cells, HCl salts. On the procedure: Transporter Binding and Cellular Uptake. All described monoamine transporter binding studies as well as cellular uptake assays were performed in duplicate by CEREP (Celle l'Evescault, France) and are described below. Further details of all assays performed may be accessed at the CEREP web site (world-wide-web at cerep.com). Cellular-based assays were conducted to provide complementary in vitro functional measures to complement the standard transporter assays as well as to provide direct comparisons of the homologs IPH with MPH with regard to DA, NE, and 5-HT uptake in synaptosomal preparations. The concentration of MPH, EPH, and IPH utilized in these studies was 10 μM, which represents a generally accepted screening concentration when evaluating compounds in this manner.
Serotonin Transporter Binding Assay. […] Briefly, cell membrane homogenates were incubated for 90 min at 4° C. with 2 nM of [^3H]imipramine in the absence and presence of each of the assessed compounds. Nonspecific binding was determined in the presence of 10 μM of imipramine. […] The filters were then dried and measured for radioactivity via scintillation counter. The standard reference compound was the TCA imipramine, which was tested in each experiment at several concentrations to generate a competition curve from which its IC50 was calculated.

A further data set has as its system Sprague-Dawley rats. The note with it: intracerebroventricular; cited from earlier work.
For data set [2] the following is noted: immediate-release tablet; cited from earlier work.
In data set [3] the test system is human liver microsomes (HLM). Description: Hydrolysis to ritalinic acid by human liver microsomes. It counts as in vitro ADME. The note with it: 1 mM substrate, 0.2 mg/ml HLM, 37° C., 60 min. On the procedure: FIG. 2—Hydrolysis of methylphenidate (MPH) and isopropylphenidate (IPH) by recombinant human CES1, HLM, HIM. After incubation with CES 1 transfected human cells, HLM, and HIM at 37° C. for 60 min, the metabolite RA produced via hydrolysis of MPH and IPH was determined by HPLC. Data are presented as mean±SEM of 3 to 6 independent experiments.
Determination of Relative Hydrolytic Rates of MPH and IPH. The assessment of relative rates of hydrolysis of the two ester compounds utilized both cell culture and human liver microsomes (HLM) and human intestinal microsomes (HIM). The human carboxylesterase 1 (hCES1) s9 fraction was prepared utilizing a novel method developed in the inventors' laboratory previously (Zhu et al., 2008). Hydrolysis of IPH and MPH by hCES1, HLM, and human intestinal microsomes was assessed by incubating the substrates with the respective enzymes and measuring the formation of the major metabolite RA formed via ester hydrolysis. Briefly, 50 μl of freshly prepared substrates (IPH and MPH) was mixed with 50 μl of enzymes in 1.5 ml Eppendorf tubes yielding a total volume of 100 μl. […] Concentrations of the primary hydrolytic product of the two compounds, RA were determined utilizing a validated HPLC method previously described.

In data set [4] the test system is male rats of the Sprague-Dawley strain. Description: Locomotor activity measurement in rats. It is filed as in vivo, rat. On the procedure:
FIGS. 4A-B—Locomotor activity of SD rats after i.p. injection of IPH (10 mg/kg) and saline. The time course of locomotor response over a 120 min period following i.p. administration of IPH (10 mg/kg) versus saline is shown in FIG. 4A. As expected, IPH produced robust effects on locomotor activity in rats compared to saline injections at every 10 min period recorded post-dosing with a mean of nearly 1200 counts recorded during the initial 10 min measurement. Shown in FIG. 4B are the cumulative locomotor activity counts over the entire 120 min study period.
Chemical compounds. dl-threo-methylphenidate (MPH) was purchased from Sigma-Aldrich (St. Louis, Mo.). dl-isopropylphenidate (IPH) was also synthesized in the inventors' laboratory using the following method. In brief, (±)-ritalinic acid (2 mmol) was dissolved in isopropyl alcohol saturated with HCl gas (75 ml) and refluxed for 24 h under nitrogen. […] All compounds studied were assessed as their HCl salts. […]
Locomotor Activity Measurement in Rats. Locomotor-inducing activity of IPH was measured according to methods previously described by Patrick and associates during their establishment the differential pharmacology of the enantiomers of MPH (Patrick et al., 1987) as well as hydroxylated metabolites of MPH (Patrick et al., 1981). […] In brief, following an initial 60 min habituation period to the activity chamber, racemic IPH (or saline) was administered intraperitonealy (i.p.) to each animal (n=5 per active drug group; n=3 per saline group) at a dose of 10 mg/kg to correspond with 10 mg of racemic MPH (delivering 5 mg of d-MPH) which was previously determined to produce maximal behavioral responses (Patrick et al., 1987). […] Locomotor activity was recorded within doughnut-shaped cages with six photocell sensors equally spaced around a 9 cm runway. Activity counts as assessed by light-beam interruptions were recorded for each animal in increments of 10 minutes over a 2 hr period. Differences in the cumulative motor activity accounts were assessed by the unpaired, two-tailed Student t-test. […]

Data set [5] has as its target T2, [3H]-(±)-MPH binding to rat brain striatal synaptosomes (Rattus norvegicus, UniProt P23977).
T2 construct: host or cells: rat brain striatal synaptosomes
To be noted: mg/mg comparison; cited from earlier work.

The test system of the next data set is dogs. The note with it: reserpine pre-treated dogs; cited from earlier work.

T1 sequence (P31645 whole entry): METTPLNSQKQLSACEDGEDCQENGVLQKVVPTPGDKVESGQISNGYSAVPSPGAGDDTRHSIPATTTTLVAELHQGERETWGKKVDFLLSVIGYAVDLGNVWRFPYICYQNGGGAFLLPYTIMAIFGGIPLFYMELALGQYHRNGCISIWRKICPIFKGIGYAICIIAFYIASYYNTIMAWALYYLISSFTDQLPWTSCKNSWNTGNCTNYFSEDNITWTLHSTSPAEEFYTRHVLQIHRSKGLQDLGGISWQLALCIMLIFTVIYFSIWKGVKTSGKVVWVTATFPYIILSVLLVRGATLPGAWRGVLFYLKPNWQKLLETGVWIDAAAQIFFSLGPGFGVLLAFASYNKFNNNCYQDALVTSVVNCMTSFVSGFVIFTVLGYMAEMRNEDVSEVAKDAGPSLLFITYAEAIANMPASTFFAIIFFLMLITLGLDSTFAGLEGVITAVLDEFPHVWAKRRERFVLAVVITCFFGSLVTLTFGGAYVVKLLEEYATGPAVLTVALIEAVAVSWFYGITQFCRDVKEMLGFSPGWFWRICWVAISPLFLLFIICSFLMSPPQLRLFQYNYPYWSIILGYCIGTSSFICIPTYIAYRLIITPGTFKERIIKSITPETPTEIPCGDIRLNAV
T2 sequence (P23977 whole entry): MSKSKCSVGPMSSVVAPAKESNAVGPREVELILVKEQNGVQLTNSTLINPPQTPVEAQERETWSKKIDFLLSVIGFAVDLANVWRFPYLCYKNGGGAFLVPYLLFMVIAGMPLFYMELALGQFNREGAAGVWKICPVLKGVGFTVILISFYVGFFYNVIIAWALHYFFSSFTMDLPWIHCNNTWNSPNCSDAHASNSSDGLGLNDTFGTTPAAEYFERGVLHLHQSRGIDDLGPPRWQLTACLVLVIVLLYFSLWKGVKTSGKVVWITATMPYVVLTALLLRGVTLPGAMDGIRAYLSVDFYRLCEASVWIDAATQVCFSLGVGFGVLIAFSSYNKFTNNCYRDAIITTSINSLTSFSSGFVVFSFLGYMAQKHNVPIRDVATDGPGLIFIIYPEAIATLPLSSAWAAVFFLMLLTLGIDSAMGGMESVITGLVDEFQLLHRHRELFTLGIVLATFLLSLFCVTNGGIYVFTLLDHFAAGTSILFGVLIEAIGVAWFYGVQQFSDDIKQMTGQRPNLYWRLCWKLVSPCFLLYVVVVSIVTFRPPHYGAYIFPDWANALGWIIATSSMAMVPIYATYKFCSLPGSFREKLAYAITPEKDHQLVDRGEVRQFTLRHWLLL

With `COC(=O)C(c1ccccc1)C1CCCCN1` (racemic) [MPH, dl-threo-methylphenidate, reference compound], the inhibition at 10 µM in data set [1] (read-out: % inhibition of control specific binding, SERT (h)) is 6%. Moreover, the “duration of locomotor activity” value with Sprague-Dawley rats was 60 min. The plasma half-life in data set [2] is 2 to 3 h.
`CC(C)OC(=O)C(c1ccccc1)C1CCCCN1` (racemic) [IPH, dl-threo-α-phenyl-2-piperidineacetic acid isopropyl ester]: the “% inhibition of control specific binding, SERT (h)” value in data set [1] (10 μM) is 20%. In addition, the “resistance to hydrolysis by HLM” value in data set [3] was “most resistant substrate to HLM”. Also, the “mean locomotor activity counts during the initial 10 min measurement” value in data set [4] (10 mg/kg i.p., SD rats) is on record as approximately 1200 counts. In addition, in data set [4] (10 mg/kg i.p., SD rats, p<0.01), the “cumulative locomotor activity counts over 120 min versus saline” value is reported as “significantly elevated”. In addition, the “locomotor responses compared with d-MPH 5 mg/kg of the earlier study (Patrick et al., 1987)” value in data set [4] (racemic IPH 10 mg/kg i.p., identical experimental conditions) is “more potent and sustained locomotor responses”. For the same compound, the “activity relative to MPH in inhibition of [3H]-(±)-MPH binding” value in data set [5] is given as “approximately one third”. The “potency versus MPH in antagonizing the physiological influences of reserpine” value in the data set with dogs is given as “lower potency”.

The values are drawn from patent publication US20120245201A1, “Isopropylphenidate for Treatment of Attention-Deficit/Hyperactivity Disorder and Fatigue-Related Disorders and Conditions” (priority 2009, published 2012).
